# Columns and labels:
# [1] = system: R-strain of Pseudocercosporella herpotrichoides; experiment: Pseudocercosporella herpotrichoides test; R-strain (wheat)/protective; assay type: in vivo; settings: protective, application rate 250 g/ha, evaluation 21 days after inoculation
# Protocol: Pseudocercosporella herpotrichoides Test; R-Strain (Wheat)/Protective
# (§1) To produce a suitable preparation of active compound, 1 part by weight of active compound is mixed with the stated amounts of solvent and emulsifier and the concentrate is diluted with water to the desired concentration.
# To test for protective activity, young plants are sprayed with the preparation of active compound at stated application rates.
# After the spray-coating has dried on, the plants are inoculated at the base of the stem with spores of the R-strain of Pseudocercosporella herotrichoides.
# The plants are placed in a greenhouse at a temperature of approximately 10° C. and a relative atmospheric humidity of approximately 80%.
# Evaluation is carried out 21 days after the inoculation. 0% means an efficacy which corresponds to that of the control, while an efficacy of 100% means that no infection is observed.
# [2] = system: caterpillars of the owlett moth (Spodoptera frugiperda); experiment: Spodoptera test; assay type: in vivo; settings: cabbage leaves dipped, active compound concentration 0.1 %
# Protocol: (§2) To produce a suitable preparation of active compound, 1 part by weight of active compound is mixed with the stated amount of solvent and the stated amount of emulsifier, and the concentrate is diluted with water to the desired concentration.
# Cabbage leaves (Brassica oleracea) are treated by being dipped into the preparation of active compound of the desired concentration and are populated with caterpillars of the owlett moth (Spodoptera frugiperda) while the leaves are still moist.
# (§3) After the desired period of time, the kill in % is determined. 100% means that all the caterpillars have been killed; 0% means that none of the caterpillars have been killed.
# Venturia inaequalis [3] = experiment: Venturia test (apple)/protective (Example K, application rate); assay type: in vivo; settings: protective, application rate 100 g/ha, evaluation 12 days after inoculation
# Protocol: (§4) Venturia Test (Apple)/Protective
# (§5) To produce a suitable preparation of active compound, 1 part by weight of active compound is mixed with the stated amounts of solvent and emulsifier, and the concentrate is diluted with water to the desired concentration.
# (§6) To test for protective activity, young plants are sprayed with the preparation of active compound at the stated application rate. After the spray-coating has dried on, the plants are inoculated with an aqueous Conidia suspension of the causative organism of apple scab Venturia inaequalis and then remain in an incubation cabin at approximately 20° C. and 100% relative atmospheric humidity for 1 day.
# The plants are subsequently placed in a greenhouse at approximately 21° C. and a relative atmospheric humidity of approximately 90%.
# Evaluation is carried out 12 days after the inoculation. 0% means an efficacy which corresponds to that of the control, while an efficacy of 100% means that no infection is observed.
# [4] = system: caterpillars of diamond-back moth (Plutella maculipennis); experiment: Plutella test; assay type: in vivo; settings: cabbage leaves dipped, active compound concentration 0.1 %
# Protocol: as §2
# Cabbage leaves (Brassica oleracea) are treated by being dipped into the preparation of active compound of the desired concentration and are populated with caterpillars of diamond-back moth (Plutella maculipennis) while the leaves are still moist.
# as §3
# Plasmopara viticola = experiment: Plasmopara test (grape vines)/protective; assay type: in vivo; settings: protective, application rate 100 g/ha, evaluation 6 days after inoculation
# Protocol: Plasmopara Test (Grape Vines)/Protective
# as §1
# To test for protective activity, young plants are sprayed with the preparation of active compound at the stated application rate. After the spray-coating has dried on, the plants are inoculated with an aqueous spore suspension of Plasmopara viticola and then remain in an incubation cabin at approximately 20° C. and 100% relative atmospheric humidity for 1 day. The plants are subsequently placed in a greenhouse at approximately 21° C. and approximately 90% relative atmospheric humidity for 5 days. The plants are then moistened and placed in an incubation cabin for 1 day.
# Evaluation is carried out 6 days after the inoculation. 0% means an efficacy which corresponds to that of the control, while an efficacy of 100% means that no infection is observed.
# Coniophora puteana = experiment: Inhibitory test with giant colonies of Basidiomycetes (Coniophora puteana); assay type: cell-based; settings: after 3 or 7 days at 26° C., vs untreated control; for inhibition at 1 ppm: 1 ppm in agar, read-out: Inhibition of the growth of the hypha in % with Coniophora puteana at an active compound concentration of 1 ppm; for inhibition at 3 ppm: 3 ppm in agar, read-out: Inhibition of the growth of the hypha in % with Coniophora puteana at an active compound concentration of 3 ppm; for inhibition at 6 ppm: 6 ppm in agar, read-out: Inhibition of the growth of the hypha in % with Coniophora puteana at an active compound concentration of 6 ppm
# Protocol: (§7) Inhibitory Test with Giant Colonies of Basidiomycetes.
# (§8) To produce a suitable preparation of active compound, 0.2 parts by weight of active compound are admixed with 99.8 parts by weight of the abovementioned solvent.
# (§9) An agar which has been prepared using malt extract peptone is mixed in the liquid state with the preparation of active compound at the particular desired application rate. After the agar has set, the resulting nutrient medium is incubated at 26° C. with pieces of mycelium which had been punched out of colonies of Coniophora puteana or Coriolus versicolor.
# (§10) Evaluation is carried out after 3 or 7 days' storage at 26° C. by measuring the growth of the hypha and scoring the resulting inhibition in percent in comparison to the untreated control. 0% means an inhibition of growth which corresponds to that of the untreated control, while an inhibition of growth of 100% means that no growth of the hypha is observed.
# Coriolus versicolor = experiment: Inhibitory test with giant colonies of Basidiomycetes (Coriolus versicolor); assay type: cell-based; settings: Trametes versicolor, after 3 or 7 days at 26° C., vs untreated control; for inhibition at 1 ppm: 1 ppm in agar, read-out: Inhibition of the growth of the hypha in % with Coriolus versicolor at an active compound concentration of 1 ppm; for inhibition at 3 ppm: 3 ppm in agar, read-out: Inhibition of the growth of the hypha in % with Coriolus versicolor at an active compound concentration of 3 ppm; for inhibition at 6 ppm: 6 ppm in agar, read-out: Inhibition of the growth of the hypha in % with Coriolus versicolor at an active compound concentration of 6 ppm
# Protocol: as §7, §8, §9, §10
# Podosphaera leucotricha = experiment: Podosphaera test (apple)/protective; assay type: in vivo; settings: protective, 100 ppm in spray liquor, evaluation 10 days after inoculation
# Protocol: Podosphaera Test (Apple)/Protective
# as §5
# To test for protective activity, young plants are sprayed with the preparation of active compound until dew-moist. After the spray-coating has dried on, the plants are inoculated by dusting with conidia of the causative organism of apple mildew Podosphaera leucotricha.
# (§11) The plants are then placed in a greenhouse at 23° C. and a relative atmospheric humidity of approximately 70%.
# Evaluation is carried out 10 days after the inoculation. 0% means an efficacy which corresponds to that of the untreated control, while an efficacy of 100% means that no infection is observed.
# Venturia inaequalis [5] = experiment: Venturia test (apple)/protective (Example B, spray liquor concentration); assay type: in vivo; settings: protective, 100 ppm in spray liquor, evaluation 12 days after inoculation
# Protocol: as §4, §5
# as §6, with “until dew-moist.” for “at the stated application rate.”, “conidia” for “Conidia”, “at” for “at approximately”
# as §11
# Evaluation is carried out 12 days after the inoculation. 0% means an efficacy which corresponds to that of the untreated control, while an efficacy of 100% means that no infection is observed.
# Pyrenophora teres = Pyrenophora teres test (barley)/protective; assay type: in vivo; settings: protective, application rate 125 g/ha, evaluation 7 days after inoculation
# Protocol: Pyrenophora teres Test (Barley)/Protective
# as §5
# To test for protective activity, young plants are sprayed with the preparation of active compound at the stated application rate.
# After the spray-coating has dried on, the plants are sprayed with a conidia suspension of Pyrenophora teres.
# The plants remain in an incubation cabin at 20° C. and 100% relative atmospheric humidity for 48 hours.
# The plants are placed in a greenhouse at a temperature of approximately 20° C. in a relative atmospheric humidity of approximately 80%.
# Evaluation is carried out 7 days after the inoculation. 0% means an efficacy which corresponds to that of the untreated control, while an efficacy of 100% means that no infection is observed.
# [6] = system: peach aphids (Myzus persicae); experiment: Myzus test; assay type: in vivo; settings: infested cabbage leaves dipped, active compound concentration 0.1 %
# Protocol: as §2
# Cabbage leaves (Brassica oleracea) which are heavily infested by peach aphids (Myzus persicae) are treated by being dipped into the preparation of active compound of the desired concentration.
# After the desired period of time, the kill in % is determined. 100% means that all the aphids have been killed, 0% means that none of the aphids have been killed.
structure (smiles),measurement,setting,value
C/C(=N\OCc1ccccc1NC(=O)c1cn(C)nc1C)c1cccc(C(F)(F)F)c1,Efficacy in %,[1],90%
Cc1ccc(OCc2ccccc2NC(=O)c2cn(C)nc2C)cc1,Degree of kill in % after 7 d,[2],100%
CC1=C(C(=O)Nc2ccccc2Oc2ccccc2)SCCO1,Efficacy in %,Venturia inaequalis [3],100%
CC1=C(C(=O)Nc2ccccc2OCc2cc(Cl)cc(Cl)c2)SCCO1,Degree of kill in % after 7 d,[4],100%
Cc1cccc(COc2ccccc2NC(=O)c2cn(C)nc2C)c1,Degree of kill in % after 7 d,[4],100%
O=C(Nc1ccccc1OCc1ccccc1)C1=C(C(F)(F)F)OCCS1,Degree of kill in % after 7 d,[4],90%
Cc1ccccc1OCc1ccccc1NC(=O)c1ccccc1C(F)(F)F,Degree of kill in % after 7 d,[4],100%
Cc1ccc(SCc2ccccc2NC(=O)c2ccccc2C(F)(F)F)cc1,Efficacy in %,Plasmopara viticola,95%
CC1=C(C(=O)Nc2ccccc2CSc2ccccc2)SCCO1,Efficacy in %,Plasmopara viticola,90%
"Cn1cc(C(=O)Nc2ccccc2Oc2ncnc(F)c2F)c(C(F)(F)F)n1 [Example 3, 2-(4,5-difluoro-pyrimdyl-6-oxy)-1-methyl-3-trifluoro-methyl-1-pyrazole-4-carboxanilide]",melting point,,197 °C
Cn1cc(C(=O)Nc2ccccc2C=Cc2ccccc2)c(C(F)(F)F)n1 [Example 16],inhibition at 1 ppm,Coniophora puteana,80%
same,inhibition at 3 ppm,Coniophora puteana,100%
same,inhibition at 6 ppm,Coniophora puteana,100%
same,inhibition at 1 ppm,Coriolus versicolor,100%
same,inhibition at 3 ppm,Coriolus versicolor,100%
same,inhibition at 6 ppm,Coriolus versicolor,100%
same,melting point,,117 °C
Cn1cc(C(=O)Nc2ccccc2C=Cc2ccccc2)c(C(F)F)n1 [Example 20],inhibition at 1 ppm,Coniophora puteana,100%
same,inhibition at 3 ppm,Coniophora puteana,100%
same,inhibition at 6 ppm,Coniophora puteana,100%
same,inhibition at 1 ppm,Coriolus versicolor,100%
same,inhibition at 3 ppm,Coriolus versicolor,100%
same,inhibition at 6 ppm,Coriolus versicolor,100%
same,melting point,,122 °C
Cc1ccc(SCc2ccccc2NC(=O)c2cn(C)nc2C(F)F)cc1 [Example 46],inhibition at 1 ppm,Coniophora puteana,80%
same,inhibition at 3 ppm,Coniophora puteana,100%
same,inhibition at 6 ppm,Coniophora puteana,100%
same,inhibition at 1 ppm,Coriolus versicolor,100%
same,inhibition at 3 ppm,Coriolus versicolor,100%
same,inhibition at 6 ppm,Coriolus versicolor,100%
same,melting point,,108 °C
Cc1ccc(OCc2ccccc2NC(=O)c2cn(C)nc2C(F)F)c(C)c1 [Example 50],inhibition at 1 ppm,Coniophora puteana,100%
same,inhibition at 3 ppm,Coniophora puteana,100%
same,inhibition at 6 ppm,Coniophora puteana,100%
same,inhibition at 1 ppm,Coriolus versicolor,100%
same,inhibition at 3 ppm,Coriolus versicolor,100%
same,inhibition at 6 ppm,Coriolus versicolor,100%
same,melting point,,120 °C
O=C(Nc1ccccc1Oc1ccccc1)c1ccccc1C(F)(F)F [drawing 518],Efficacy in % at an active compound concentration in the spray liquor of 100 ppm,Podosphaera leucotricha,100%
Cc1nn(C)cc1C(=O)Nc1ccccc1Oc1ccccc1 [drawing 519],Efficacy in % at an active compound concentration in the spray liquor of 100 ppm,Podosphaera leucotricha,96%
O=C(Nc1ccccc1Oc1ccccc1)c1ccccc1C(F)(F)F [drawing 520],Efficacy in % at an active compound concentration in the spray liquor of 100 ppm,Venturia inaequalis [5],83%
Cc1nn(C)cc1C(=O)Nc1ccccc1Oc1ccccc1 [drawing 521],Efficacy in % at an active compound concentration in the spray liquor of 100 ppm,Venturia inaequalis [5],83%
Cn1cc(C(=O)Nc2ccccc2C=Cc2ccccc2)c(C(F)(F)F)n1 [drawing 523],Efficacy in % at an active compound concentration in the spray liquor of 100 ppm,Venturia inaequalis [5],97%
Cn1cc(C(=O)Nc2ccccc2C=Cc2ccccc2)c(C(F)F)n1 [drawing 524],Efficacy in % at an active compound concentration in the spray liquor of 100 ppm,Venturia inaequalis [5],100%
Cc1ccc(SCc2ccccc2NC(=O)c2cn(C)nc2C(F)F)cc1 [drawing 525],Efficacy in % at an active compound concentration in the spray liquor of 100 ppm,Venturia inaequalis [5],100%
Cc1ccc(OCc2ccccc2NC(=O)c2cn(C)nc2C(F)F)c(C)c1 [drawing 526],Efficacy in % at an active compound concentration in the spray liquor of 100 ppm,Venturia inaequalis [5],95%
Cc1cccc(OCc2ccccc2NC(=O)c2cn(C)nc2C(F)(F)F)c1 [drawing 527],Efficacy in % at an active compound concentration in the spray liquor of 100 ppm,Venturia inaequalis [5],90%
Cn1cc(C(=O)Nc2ccccc2C=Cc2ccccc2)c(C(F)F)n1 [drawing 528],Efficacy in %,Pyrenophora teres,83%
Cc1ccc(SCc2ccccc2NC(=O)c2cn(C)nc2C(F)F)cc1 [drawing 529],Efficacy in %,Pyrenophora teres,75%
Cc1nc(C(F)(F)F)c(C(=O)Nc2ccccc2CSc2ccccc2)s1 [drawing 531],Degree of kill in % after 7 d,[4],100%
Cc1ccc(OCc2ccccc2NC(=O)c2cn(C)nc2C(F)F)c(C)c1 [drawing 532],Degree of kill in % after 7 d,[4],100%
Cc1nn(C)cc1C(=O)Nc1ccccc1CSc1ccc(Cl)cc1 [drawing 534],Degree of kill in % after 7 d,[4],100%
Cc1cccc(OCc2ccccc2NC(=O)c2cn(C)nc2C(F)(F)F)c1 [drawing 539],Degree of kill in % after 7 d,[6],95%
